Among the test systems are HT29 colon; SN12C renal; SF-295 CNS; SNB-19 CNS; CAKI-1 renal; OVCAR-8 ovarian; HOP-62 NSCLC; SW-620 colon; SK-MEL-2 melanoma; HOP-92 NSCLC; SF-268 CNS; COLO 205 colon; UACC-62 melanoma; OVCAR-4 ovarian; MDA-MB-231 breast; MOLT-4 leukemia; DU-145 prostate; SK-MEL-28 melanoma; SNB-75 CNS; KM12 colon.
Experiment in all cases: growth of human tumour cells (NCI), 48 h

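Test compounds were applied to cells in 96-well plates for 48 hours at 5 doses. TGI: total growth inhibition.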

On to `CCOC(=O)C1=C(C)NC(=O)N([N+](=O)[O-])C1c1ccccc1C(F)(F)F` (configuration not stated), for which the TGI in the test with HT29 colon, in the test with SN12C renal, in the test with SF-295 CNS, with SNB-19 CNS, in the test with CAKI-1 renal and in the test with OVCAR-8 ovarian was more than 100 µM throughout. In addition, the TGI with HOP-62 NSCLC, in the test with SW-620 colon, with SK-MEL-2 melanoma, with HOP-92 NSCLC, in the test with SF-268 CNS and in the test on COLO 205 colon was more than 100 µM each time. The TGI with UACC-62 melanoma, in the test on OVCAR-4 ovarian, in the test on MDA-MB-231 breast, in the test on MOLT-4 leukemia, in the test with DU-145 prostate and in the test on SK-MEL-28 melanoma was more than 100 µM throughout.

With `Cc1cc(C)nc(NS(=O)(=O)c2ccc(Nc3c4ccccc4nc4c(C(=O)NCCO)cccc34)cc2)n1`, the TGI was 38.3 µM with HT29 colon; more than 100 µM in the test with SN12C renal; 53.5 µM in the test with SF-295 CNS; more than 100 µM in the test with SNB-19 CNS; 52.7 µM in the test on CAKI-1 renal; more than 100 µM in the test on OVCAR-8 ovarian. In addition, the TGI was 71.3 µM with HOP-62 NSCLC; more than 100 µM with SW-620 colon; 35.7 µM in the test on SK-MEL-2 melanoma; more than 100 µM in the test with HOP-92 NSCLC; 58.6 µM with SF-268 CNS; 31.3 µM in the test with COLO 205 colon. Moreover, the TGI in the test with SNB-75 CNS is 21.6 µM; in the test with UACC-62 melanoma, more than 100 µM; in the test on OVCAR-4 ovarian, 97.5 µM; with KM12 colon, 22.9 µM; in the test on MDA-MB-231 breast, 27.4 µM; in the test on MOLT-4 leukemia, more than 100 µM. The TGI was more than 100 µM with DU-145 prostate and 41.3 µM in the test with SK-MEL-28 melanoma.

`CCOC(=O)c1csc(NC(=O)CCCC#N)n1`: the TGI in the test on HT29 colon, in the test on SF-295 CNS, in the test on SNB-19 CNS, in the test on CAKI-1 renal, in the test with OVCAR-8 ovarian and in the test on HOP-62 NSCLC was more than 100 µM each time. Besides, the TGI with SW-620 colon, in the test with SK-MEL-2 melanoma, in the test with HOP-92 NSCLC, with COLO 205 colon, in the test on SNB-75 CNS and with UACC-62 melanoma was more than 100 µM in each case. For the same molecule, the TGI in the test with OVCAR-4 ovarian, in the test with KM12 colon, in the test with MDA-MB-231 breast, in the test with MOLT-4 leukemia, with DU-145 prostate and in the test with SK-MEL-28 melanoma was more than 100 µM in each case.

On to `c1ccc([P+](Cc2csnn2)(c2ccccc2)c2ccccc2)cc1`, for which the TGI with HT29 colon, with SN12C renal, with SF-295 CNS, with SNB-19 CNS, in the test on CAKI-1 renal and in the test on OVCAR-8 ovarian was more than 100 µM throughout. Further, the TGI with HOP-62 NSCLC, in the test on SW-620 colon, in the test with SK-MEL-2 melanoma, with HOP-92 NSCLC, in the test with SF-268 CNS and with COLO 205 colon was more than 100 µM throughout. In addition, the TGI with SNB-75 CNS, in the test on UACC-62 melanoma, in the test with OVCAR-4 ovarian, with KM12 colon, with MOLT-4 leukemia and in the test with SK-MEL-28 melanoma was more than 100 µM each time.

As to `COc1ccc(CN2C(=O)C(=O)N(C)C2=O)c2ccccc12`, the TGI with HT29 colon, in the test with SN12C renal, in the test with SF-295 CNS, with SNB-19 CNS, with CAKI-1 renal and in the test with OVCAR-8 ovarian was more than 10 µM each time. Also, the TGI with HOP-62 NSCLC, in the test on SW-620 colon, with SK-MEL-2 melanoma, in the test on SF-268 CNS, in the test on COLO 205 colon and in the test with SNB-75 CNS was more than 10 µM throughout. Besides, the TGI with UACC-62 melanoma, with OVCAR-4 ovarian, in the test on KM12 colon, in the test on MDA-MB-231 breast, in the test on MOLT-4 leukemia and in the test on DU-145 prostate was more than 10 µM throughout. In the test with SK-MEL-28 melanoma, this molecule gave a TGI of more than 10 µM.

As for `CCc1cc(=O)n(/C(C)=C/c2ccccc2)n1C`, the TGI in the test on HT29 colon, with SN12C renal, in the test on SF-295 CNS, in the test with SNB-19 CNS, in the test on CAKI-1 renal and with OVCAR-8 ovarian was more than 100 µM each time. The TGI in the test on HOP-62 NSCLC, in the test with SW-620 colon, in the test with SK-MEL-2 melanoma, with HOP-92 NSCLC, in the test with SF-268 CNS and in the test with COLO 205 colon was more than 100 µM each time. Also, the TGI with SNB-75 CNS, in the test with UACC-62 melanoma, with OVCAR-4 ovarian, in the test with KM12 colon, with MDA-MB-231 breast and with MOLT-4 leukemia was more than 100 µM throughout. The TGI with DU-145 prostate and in the test with SK-MEL-28 melanoma was more than 100 µM throughout.

On to `COc1ccc(/C(C)=N/NC(=S)N(C)C)c(O)c1`, for which the TGI was more than 100 µM in the test with HT29 colon; more than 100 µM in the test with SN12C renal; more than 100 µM with SF-295 CNS; more than 100 µM in the test on SNB-19 CNS; 96.6 µM in the test with CAKI-1 renal; more than 100 µM in the test with HOP-62 NSCLC. Besides, the TGI in the test with SW-620 colon is more than 100 µM; with SK-MEL-2 melanoma it was more than 100 µM; with HOP-92 NSCLC, 98.8 µM; in the test on SF-268 CNS, more than 100 µM; in the test with COLO 205 colon, 12.4 µM; in the test with SNB-75 CNS, more than 100 µM. For the same molecule, the TGI with UACC-62 melanoma was 20.1 µM; with OVCAR-4 ovarian, 9.48 µM; in the test on KM12 colon it was more than 100 µM; in the test with MDA-MB-231 breast, more than 100 µM; in the test with MOLT-4 leukemia, more than 100 µM; in the test with DU-145 prostate, more than 100 µM. For the same molecule, the TGI with SK-MEL-28 melanoma was more than 100 µM.

Values taken from PubChem BioAssay (NCI).
